Data: patent US4684739A, “Alkylenedioxybenzene derivatives and acid addition salts thereof” (Mitsubishi Chemical Industries Limited, priority 1980, dated 1987)
Counter-ions that a name gives are not always drawn.

System: not listed separately
Test: Acute toxicity (LD50) in mice, Litchfield-Wilcoxon method
Conditions: mouse, in vivo, ip
Protocol: The values for acute toxicity (LD50 ) were calculated by the Litchfield-Wilcoxon method from the data obtained on mice.

Question: For Cl.c1ccc2c(c1)OCC(CNCCCOc1ccc3c(c1)OCO3)O2 (stereo not drawn) [Compound 5, 5-[3-{(1,4-benzodioxan-2-ylmethyl)amino}propoxy]-1,3-benzodioxole hydrochloride], which LD50 is on record?
Answer: 165 mg/kg

Same assay, conditions: mouse, in vivo, iv

Question: For c1ccc2c(c1)OCC(CNCCCCc1ccc3c(c1)OCCO3)O2 (stereo not drawn) [Compound 16, 6-[4-{(1,4-benzodioxan-2-ylmethyl)amino}butyl]-1,4-benzodioxane], which LD50 is on record?
Answer: 31 mg/kg

Same assay, conditions: mouse, in vivo, po

Question: With Cl.O=C(CNCC1COc2ccccc2O1)c1ccc2c(c1)OCO2 (stereo not drawn) [Compound 12, 5-[2-{(1,4-benzodioxan-2-ylmethyl)amino}acetyl]-1,3-benzodioxole hydrochloride] as the compound, how does the LD50 read?
Answer: 1350 mg/kg

Question: With Cl.OC(CNCC1COc2ccccc2O1)COc1ccc2c(c1)OCO2 (stereo not drawn) [Compound 1, 5-[3-{(1,4-benzodioxan-2-ylmethyl)amino}-2-hydroxypropoxy]-1,3-benzodioxole hydrochloride] as the compound, how does the LD50 read?
Answer: 515 mg/kg

System: spontaneous hypertensive rats (SHR)
Test: Hypotensive effect in spontaneous hypertensive rats after oral administration
Type: in vivo
Conditions: Rattus norvegicus, 1 mg/kg p.o., percent drop relative to blood pressure before medication
Protocol: The hypotensive activities of the compounds of this invention were tested as follows: The test animals used were spontaneous hypertensive rats (SHR) of 5 to 7 month old weighing 300 to 370 g. The blood pressure and the heart rate were measured bloodily under no anesthesia by means of a cathether which has been inserted through the tail's artery under ether anesthesia, thereby determining the average blood pressure and heart rate before medication. […] The hypotensive effect was expressed as percent drop relative to the blood pressure before medication.

Question: With c1ccc2c(c1)OCC(CNCCCCc1ccc3c(c1)OCCCO3)O2 (stereo not drawn) [Compound 17, 1-[4-{(1,4-benzodioxan-2-ylmethyl)amino}butyl]-3,4-trimethylenedioxybenzene hydrochloride] as the compound, how does the inhibition in vivo at 1 mg/kg read?
Answer: 20.1%

Question: For c1ccc2c(c1)OCC(CNCCCCc1ccc3c(c1)OCCO3)O2 (stereo not drawn) [Compound 16, 6-[4-{(1,4-benzodioxan-2-ylmethyl)amino}butyl]-1,4-benzodioxane], which inhibition in vivo at 1 mg/kg is on record?
Answer: 12.1%

Question: Which inhibition in vivo at 1 mg/kg does the source give for OC(CNCC1COc2ccccc2O1)c1ccc2c(c1)OCCO2 (stereo not drawn) [Compound 21, 6-[2-{(1,4-benzodioxan-2-ylmethyl)amino}-1-hydroxyethyl]-1,4-benzodioxane] here?
Answer: 9.8%

Question: For Cl.O=C(CNCC1COc2ccccc2O1)c1ccc2c(c1)OCO2 (stereo not drawn) [Compound 12, 5-[2-{(1,4-benzodioxan-2-ylmethyl)amino}acetyl]-1,3-benzodioxole hydrochloride], which inhibition in vivo at 1 mg/kg is on record?
Answer: 20.1%

Question: For Cl.OC(CNCC1COc2ccccc2O1)COc1ccc2c(c1)OCO2 (stereo not drawn) [Compound 1, 5-[3-{(1,4-benzodioxan-2-ylmethyl)amino}-2-hydroxypropoxy]-1,3-benzodioxole hydrochloride], which inhibition in vivo at 1 mg/kg is on record?
Answer: 9.9%

Question: With O=C(CCNCC1COc2ccccc2O1)c1ccc2c(c1)OCO2 (stereo not drawn) [Compound 27, reference compound] as the compound, how does the inhibition in vivo at 1 mg/kg read?
Answer: 7.8%

Question: Which inhibition in vivo at 1 mg/kg does the source give for OC(CNCC1COc2ccccc2O1)COc1ccc2c(c1)OCCO2 (stereo not drawn) [Compound 2, 6-[3-{(1,4-benzodioxan-2-ylmethyl)amino}-2-hydroxypropoxy]-1,4-benzodioxane] here?
Answer: 9%

Question: With c1ccc2c(c1)OCC(CNCCCNc1ccc3c(c1)OCO3)O2 (stereo not drawn) [Compound 19, N-[3-{(1,4-benzodioxan-2-ylmethyl)amino}propyl]-3,4-methylenedioxyaniline] as the compound, how does the inhibition in vivo at 1 mg/kg read?
Answer: 19.6%

Question: With O=C(CCNCC1COc2ccccc2O1)Nc1ccc2c(c1)OCO2 (stereo not drawn) [Compound 18, N-[3-{(1,4-benzodioxan-2-ylmethyl)amino}propionyl]-3,4-methylenedioxyaniline] as the compound, how does the inhibition in vivo at 1 mg/kg read?
Answer: 11.9%

Same assay, conditions: Rattus norvegicus, 3 mg/kg p.o., percent drop relative to blood pressure before medication

Question: For c1ccc2c(c1)OCC(CNCCCCOc1ccc3c(c1)OCO3)O2 (stereo not drawn) [Compound 6], which inhibition in vivo at 3 mg/kg is on record?
Answer: 28.5%

Question: Which inhibition in vivo at 3 mg/kg does the source give for c1ccc2c(c1)OCC(CNCCCCc1ccc3c(c1)OCCCO3)O2 (stereo not drawn) [Compound 17, 1-[4-{(1,4-benzodioxan-2-ylmethyl)amino}butyl]-3,4-trimethylenedioxybenzene hydrochloride] here?
Answer: 29.7%

Question: With c1ccc2c(c1)OCC(CNCCCCc1ccc3c(c1)OCCO3)O2 (stereo not drawn) [Compound 16, 6-[4-{(1,4-benzodioxan-2-ylmethyl)amino}butyl]-1,4-benzodioxane] as the compound, how does the inhibition in vivo at 3 mg/kg read?
Answer: 33.7%

Question: For OC(CNCC1COc2ccccc2O1)c1ccc2c(c1)OCCO2 (stereo not drawn) [Compound 21, 6-[2-{(1,4-benzodioxan-2-ylmethyl)amino}-1-hydroxyethyl]-1,4-benzodioxane], which inhibition in vivo at 3 mg/kg is on record?
Answer: 19.5%

Question: With c1ccc2c(c1)OCC(CNCCCOc1ccc3c(c1)OCCO3)O2 (stereo not drawn) [Compound 7, 6-[3-{(1,4-benzodioxan-2-ylmethyl)amino}propoxy]-1,4-benzodioxane] as the compound, how does the inhibition in vivo at 3 mg/kg read?
Answer: 35.2%

Question: For Cl.O=C(CNCC1COc2ccccc2O1)c1ccc2c(c1)OCO2 (stereo not drawn) [Compound 12, 5-[2-{(1,4-benzodioxan-2-ylmethyl)amino}acetyl]-1,3-benzodioxole hydrochloride], which inhibition in vivo at 3 mg/kg is on record?
Answer: 28.2%

Question: Which inhibition in vivo at 3 mg/kg does the source give for Cl.OC(CNCC1COc2ccccc2O1)COc1ccc2c(c1)OCO2 (stereo not drawn) [Compound 1, 5-[3-{(1,4-benzodioxan-2-ylmethyl)amino}-2-hydroxypropoxy]-1,3-benzodioxole hydrochloride] here?
Answer: 15.4%

Question: With c1ccc2c(c1)OCC(CNCCOc1cccc3c1OCO3)O2 (stereo not drawn) [Compound 26, reference compound] as the compound, how does the inhibition in vivo at 3 mg/kg read?
Answer: 3.5%

Question: Which inhibition in vivo at 3 mg/kg does the source give for O=C(CCNCC1COc2ccccc2O1)c1ccc2c(c1)OCO2 (stereo not drawn) [Compound 27, reference compound] here?
Answer: 12.8%

Question: With c1ccc2c(c1)OCC(CNCCCCOc1cccc3c1OCO3)O2 (stereo not drawn) [Compound 10] as the compound, how does the inhibition in vivo at 3 mg/kg read?
Answer: 30.6%

Question: With OC(CNCC1COc2ccccc2O1)COc1ccc2c(c1)OCCO2 (stereo not drawn) [Compound 2, 6-[3-{(1,4-benzodioxan-2-ylmethyl)amino}-2-hydroxypropoxy]-1,4-benzodioxane] as the compound, how does the inhibition in vivo at 3 mg/kg read?
Answer: 20.2%

Question: With c1ccc2c(c1)OCC(CNCCCNc1ccc3c(c1)OCO3)O2 (stereo not drawn) [Compound 19, N-[3-{(1,4-benzodioxan-2-ylmethyl)amino}propyl]-3,4-methylenedioxyaniline] as the compound, how does the inhibition in vivo at 3 mg/kg read?
Answer: 27.8%

Question: With O=C(CCNCC1COc2ccccc2O1)Nc1ccc2c(c1)OCO2 (stereo not drawn) [Compound 18, N-[3-{(1,4-benzodioxan-2-ylmethyl)amino}propionyl]-3,4-methylenedioxyaniline] as the compound, how does the inhibition in vivo at 3 mg/kg read?
Answer: 27.5%

Question: Which inhibition in vivo at 3 mg/kg does the source give for c1ccc2c(c1)OCC(CNCCCOc1ccc3c(c1)OCCCO3)O2 (stereo not drawn) [Compound 9, 1-[3-{(1,4-benzodioxan-2-ylmethyl)amino}propoxy]-3,4-trimethylenedioxybenzene] here?
Answer: 30.1%

Question: For Cl.c1ccc2c(c1)OCC(CNCCCOc1ccc3c(c1)OCO3)O2 (stereo not drawn) [Compound 5, 5-[3-{(1,4-benzodioxan-2-ylmethyl)amino}propoxy]-1,3-benzodioxole hydrochloride], which inhibition in vivo at 3 mg/kg is on record?
Answer: 32.6%

Same assay, conditions: Rattus norvegicus, 10 mg/kg p.o., percent drop relative to blood pressure before medication

Question: Which inhibition in vivo at 10 mg/kg does the source give for c1ccc2c(c1)OCC(CNCCCCOc1ccc3c(c1)OCO3)O2 (stereo not drawn) [Compound 6] here?
Answer: 32%

Question: For c1ccc2c(c1)OCC(CNCCCCc1ccc3c(c1)OCCO3)O2 (stereo not drawn) [Compound 16, 6-[4-{(1,4-benzodioxan-2-ylmethyl)amino}butyl]-1,4-benzodioxane], which inhibition in vivo at 10 mg/kg is on record?
Answer: 50%

Question: With OC(CNCC1COc2ccccc2O1)c1ccc2c(c1)OCCO2 (stereo not drawn) [Compound 21, 6-[2-{(1,4-benzodioxan-2-ylmethyl)amino}-1-hydroxyethyl]-1,4-benzodioxane] as the compound, how does the inhibition in vivo at 10 mg/kg read?
Answer: 39.1%

Question: For c1ccc2c(c1)OCC(CNCCCOc1ccc3c(c1)OCCO3)O2 (stereo not drawn) [Compound 7, 6-[3-{(1,4-benzodioxan-2-ylmethyl)amino}propoxy]-1,4-benzodioxane], which inhibition in vivo at 10 mg/kg is on record?
Answer: 55.3%

Question: With Cl.O=C(CNCC1COc2ccccc2O1)c1ccc2c(c1)OCO2 (stereo not drawn) [Compound 12, 5-[2-{(1,4-benzodioxan-2-ylmethyl)amino}acetyl]-1,3-benzodioxole hydrochloride] as the compound, how does the inhibition in vivo at 10 mg/kg read?
Answer: 42.3%

Question: For Cl.OC(CNCC1COc2ccccc2O1)COc1ccc2c(c1)OCO2 (stereo not drawn) [Compound 1, 5-[3-{(1,4-benzodioxan-2-ylmethyl)amino}-2-hydroxypropoxy]-1,3-benzodioxole hydrochloride], which inhibition in vivo at 10 mg/kg is on record?
Answer: 27.6%

Question: Which inhibition in vivo at 10 mg/kg does the source give for c1ccc2c(c1)OCC(CNCCOc1cccc3c1OCO3)O2 (stereo not drawn) [Compound 26, reference compound] here?
Answer: 8.1%

Question: Which inhibition in vivo at 10 mg/kg does the source give for O=C(CCNCC1COc2ccccc2O1)c1ccc2c(c1)OCO2 (stereo not drawn) [Compound 27, reference compound] here?
Answer: 30.3%

Question: Which inhibition in vivo at 10 mg/kg does the source give for c1ccc2c(c1)OCC(CNCCCCOc1cccc3c1OCO3)O2 (stereo not drawn) [Compound 10] here?
Answer: 40%

Question: For OC(CNCC1COc2ccccc2O1)COc1ccc2c(c1)OCCO2 (stereo not drawn) [Compound 2, 6-[3-{(1,4-benzodioxan-2-ylmethyl)amino}-2-hydroxypropoxy]-1,4-benzodioxane], which inhibition in vivo at 10 mg/kg is on record?
Answer: 30.4%

Question: For c1ccc2c(c1)OCC(CNCCCNc1ccc3c(c1)OCO3)O2 (stereo not drawn) [Compound 19, N-[3-{(1,4-benzodioxan-2-ylmethyl)amino}propyl]-3,4-methylenedioxyaniline], which inhibition in vivo at 10 mg/kg is on record?
Answer: 44.3%

Question: With O=C(CCNCC1COc2ccccc2O1)Nc1ccc2c(c1)OCO2 (stereo not drawn) [Compound 18, N-[3-{(1,4-benzodioxan-2-ylmethyl)amino}propionyl]-3,4-methylenedioxyaniline] as the compound, how does the inhibition in vivo at 10 mg/kg read?
Answer: 41%

Question: With c1ccc2c(c1)OCC(CNCCCOc1ccc3c(c1)OCCCO3)O2 (stereo not drawn) [Compound 9, 1-[3-{(1,4-benzodioxan-2-ylmethyl)amino}propoxy]-3,4-trimethylenedioxybenzene] as the compound, how does the inhibition in vivo at 10 mg/kg read?
Answer: 48.4%

Question: Which inhibition in vivo at 10 mg/kg does the source give for Cl.c1ccc2c(c1)OCC(CNCCCOc1ccc3c(c1)OCO3)O2 (stereo not drawn) [Compound 5, 5-[3-{(1,4-benzodioxan-2-ylmethyl)amino}propoxy]-1,3-benzodioxole hydrochloride] here?
Answer: 47.6%
